Read-outs that look alike come from different tables or passages of the source.
Columns and labels:
[1] = molecular target: T1, baculovirus-expressed ALK (Homo sapiens, UniProt Q9UM73); assay: ALK Kinase Assay (ELISA-type, time-resolved fluorescence); assay type: biochemical; details: 1 μM ATP (Km level)
T1 construct: host or cells: baculovirus expression system
Summary of the method: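 Plates coated with phospholipase C-γ substrate (10 μg/mL in TBS); reaction started with 30 ng/ml ALK and run 15 min at 37° C. Phosphorylated substrate detected with Eu-N1-labeled PT66 antibody. IC50 from sigmoidal variable-slope fit of percent inhibition vs log concentration.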

[2] = molecular target: T2, c-Met (cytoplasmic domain) (Homo sapiens, UniProt P08581); assay: c-Met Kinase Assay (same methods as for ALK, with modifications); assay type: biochemical; details: 1 μM ATP (Km level)
T2 construct: 10 ng/mL c-Met (cytoplasmic domain, Invitrogen Corporation #PV3143); purchased Invitrogen Corporation PV3143
T2 sequence (P08581 956-1390 limits assumed): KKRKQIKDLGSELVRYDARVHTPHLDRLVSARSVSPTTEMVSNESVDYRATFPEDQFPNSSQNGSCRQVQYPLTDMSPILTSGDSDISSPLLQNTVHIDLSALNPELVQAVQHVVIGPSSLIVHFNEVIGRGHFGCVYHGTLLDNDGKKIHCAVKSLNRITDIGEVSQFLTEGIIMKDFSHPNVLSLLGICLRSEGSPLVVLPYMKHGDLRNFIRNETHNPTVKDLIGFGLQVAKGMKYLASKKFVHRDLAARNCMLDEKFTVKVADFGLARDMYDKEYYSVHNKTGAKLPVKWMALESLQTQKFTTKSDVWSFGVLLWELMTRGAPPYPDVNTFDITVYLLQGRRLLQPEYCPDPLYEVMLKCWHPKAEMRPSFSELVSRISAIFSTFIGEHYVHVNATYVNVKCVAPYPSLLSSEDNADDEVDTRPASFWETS
Summary of the method: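 Plates were coated with phospholipase C-γ substrate (10 μg/mL) in TBS, and the reaction was started with 10 ng/mL c-Met cytoplasmic domain and run 15 min at 37 °C. Phosphoproduct was detected with Eu-N1-labelled PT66 antibody. IC50 came from a variable-slope sigmoidal fit of percent inhibition vs log concentration.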

T1 sequence (Q9UM73 19-1620): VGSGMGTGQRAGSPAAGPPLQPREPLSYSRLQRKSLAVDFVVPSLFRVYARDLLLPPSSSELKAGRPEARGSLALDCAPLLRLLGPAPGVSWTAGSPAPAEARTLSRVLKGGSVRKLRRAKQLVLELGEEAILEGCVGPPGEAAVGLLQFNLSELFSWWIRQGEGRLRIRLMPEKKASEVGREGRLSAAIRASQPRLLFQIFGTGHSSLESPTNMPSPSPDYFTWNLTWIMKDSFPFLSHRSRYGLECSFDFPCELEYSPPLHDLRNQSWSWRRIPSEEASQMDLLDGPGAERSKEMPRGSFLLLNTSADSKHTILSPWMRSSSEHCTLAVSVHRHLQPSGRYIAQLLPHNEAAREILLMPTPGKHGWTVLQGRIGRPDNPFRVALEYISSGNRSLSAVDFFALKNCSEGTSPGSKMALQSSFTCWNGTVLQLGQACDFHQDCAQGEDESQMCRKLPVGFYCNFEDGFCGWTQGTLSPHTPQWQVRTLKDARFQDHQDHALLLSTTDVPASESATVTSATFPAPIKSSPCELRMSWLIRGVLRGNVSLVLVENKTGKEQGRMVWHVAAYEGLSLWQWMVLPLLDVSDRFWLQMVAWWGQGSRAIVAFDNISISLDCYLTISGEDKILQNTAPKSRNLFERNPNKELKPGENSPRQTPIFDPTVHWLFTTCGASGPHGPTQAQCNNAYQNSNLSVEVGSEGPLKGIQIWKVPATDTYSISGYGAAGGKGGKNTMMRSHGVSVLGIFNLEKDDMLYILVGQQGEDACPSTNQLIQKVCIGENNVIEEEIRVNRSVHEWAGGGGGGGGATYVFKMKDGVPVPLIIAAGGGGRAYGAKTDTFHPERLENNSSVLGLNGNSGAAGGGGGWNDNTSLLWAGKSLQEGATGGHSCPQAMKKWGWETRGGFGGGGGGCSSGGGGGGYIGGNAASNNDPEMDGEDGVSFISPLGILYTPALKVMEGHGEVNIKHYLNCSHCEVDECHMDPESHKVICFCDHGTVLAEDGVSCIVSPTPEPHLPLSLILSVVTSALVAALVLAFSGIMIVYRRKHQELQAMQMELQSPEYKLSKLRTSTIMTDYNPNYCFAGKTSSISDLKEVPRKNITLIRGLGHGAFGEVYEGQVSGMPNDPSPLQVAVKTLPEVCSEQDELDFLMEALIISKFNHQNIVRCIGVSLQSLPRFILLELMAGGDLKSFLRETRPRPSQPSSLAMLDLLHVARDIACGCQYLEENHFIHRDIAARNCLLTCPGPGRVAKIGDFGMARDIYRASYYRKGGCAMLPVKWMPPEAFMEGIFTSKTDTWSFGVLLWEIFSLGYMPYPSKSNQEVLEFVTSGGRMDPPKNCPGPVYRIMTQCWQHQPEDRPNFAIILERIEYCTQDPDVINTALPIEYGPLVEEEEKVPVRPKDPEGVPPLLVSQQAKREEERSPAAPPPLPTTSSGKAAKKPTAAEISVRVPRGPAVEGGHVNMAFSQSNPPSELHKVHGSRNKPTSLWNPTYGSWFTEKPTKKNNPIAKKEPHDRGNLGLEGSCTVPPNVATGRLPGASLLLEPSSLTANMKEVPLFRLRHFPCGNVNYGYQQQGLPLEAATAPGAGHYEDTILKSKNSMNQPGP

IC50 ([1]; 30 ng/ml ALK, 37° C., 15 minutes, read-out: ALK Activity (ALK kinase inhibition, IC50 class)) [nM]	IC50 ([2]; 10 ng/mL c-Met, read-out: cMet Activity (c-Met kinase inhibition, IC50 class)) [nM]	IC50 ([1]; ALK kinase inhibition, read-out: ALK Activity) [nM]	IC50 ([2]; c-Met kinase inhibition, read-out: cMet Activity) [nM]	SMILES
< 100	1000 to 10000	–	–	COc1cc2c(cc1Nc1ncc(Cl)c(Nc3ccccc3S(=O)(=O)N(C)C)n1)CCN(Cc1nccn1C)CC2 [Example 1171, 2-{5-Chloro-2-[8-methoxy-3-(1-methyl-1H-imidazol-2-ylmethyl)-2,3,4,5-tetrahydro-1H-benzo[d]azepin-7-ylamino]-pyrimidin-4-ylamino}-N,N-dimethyl-benzenesulfonamide]
–	–	< 100	100 to 1000	CNC(=O)c1ccccc1Nc1nc(Nc2ccc3c(c2)C2CN(C(C)C)CC3O2)ncc1Cl (stereo not shown) [Example 62, 2-[5-Chloro-2-(10-isopropyl-12-oxa-10-aza-tricyclo[6.3.1.0*2,7*]dodeca-2,4,6-trien-4-ylamino)-pyrimidin-4-ylamino]-N-methyl-benzamide]

Reference: patent publication US8148391B2 (Cephalon, Inc., priority 2006, dated 2012)
